Data taken from US20020032151A1, “Modulating the permeability of a physiological barrier with an agent that modulates tyrosine phosphorylation” (priority 1993, published 2002).
“Also recorded” adds a separate entry of the source. Where two headings read alike, the source gives them in different places.

Columns and labels:
[1] = test system: MDCK strain I cells; assay: Transcellular electrical resistance (TER) of filter-grown MDCK strain I cells; assay type: cell-based, canine
[2] = test system: E-cadherin/catenin complex; assay type: cell-based, canine
[3] = test system: bovine brain microvessel endothelial cells (BBECs); details: BBECs as well as endothelial cells derived from human brain; previously shown (Rubin et al. 1991); cited from earlier work
[4] = test system: MDCK strain I cells; assay type: cell-based, canine
[5] = test system: pp60^v−src transfected rat 3Y1 cells; details: pp60v-src transfected rat 3Y1 fibroblast cell line; Matsuyoshi et al. 1992; cited from earlier work
[6] = test system: brain tissue from normal adult rat; assay: Phosphotyrosine (4G10) label of blood vessels in rat brain tissue exposed to pervanadate; details: rat brain tissue exposed to pervanadate (FIG. 10F)
Method: In these experiments, brain sections were labelled with an antibody to phosphotyrosine (monoclonal antibody 4G10) and labelled with a polyclonal antibody to collagen type IV to outline blood vessels. In sham operated animals, 4G10 label was restricted to a few large, peripherally located, vessels with a pattern of staining consistent with tyrosine phosphorylation of proteins at the borders of cells lining the vessels. After 24 hours of MCA occlusion an increase in 4G10 label was seen associated with microvessels located at the edge of the severely damaged tissue (see FIG. 10). The increase in 4G10 label was restricted to vessels in the area of the lesion, but not every vessel was labelled. 4G10 distribution in the microvessels is similar to that seen when brain tissue from normal adult rat is exposed to pervanadate, a drug that elevates levels of phosphotyrosine by inhibiting the enzymes responsible for tyrosine dephosphorylation.
Sections were air-dried and permeablised with 95% ethanol at −95° C. for 30 minutes followed by acetone at room temperature for 1 minute. All of the antibody incubations and washes used PBS containing 5×10^−4 M sodium vanadate. […]

[7] = test system: MDCK cells; assay type: cell-based, canine
[8] = test system: bovine brain microvessel endothelial cells (BBECs); assay type: cell-based
[9] = test system: BBECs; assay type: cell-based, bovine
[10] = test system: MDCK strain I cells; assay type: cell-based, canine; remark: listed apart in the source
[11] = test system: BBECs; assay type: cell-based, bovine; remark: listed apart in the source
[12] = test system: ZO-1 and associated proteins; assay type: cell-based, canine
[13] = test system: MDCK cells; details: Volberg et al. 1992; cited from earlier work

With `OCC(S)CS` (centres unmarked) [2,3-dimercaptopropanol] the “block of PAO-induced decrease in TER by reducing agent” value ([1]; MDCK cells preincubated 10 minutes with 200 μM β-mercaptoethanol or 100 μM 2,3-dimercaptopropanol, 10 μM PAO, TER 30 minutes later (FIG. 2b)) was “blocked”, the “block of BAPTA-elicited decrease in TER” value ([1]; MDCK cells, 100 μM 2,3-dimercaptopropanol preincubation, 3 mM BAPTA (FIG. 2b)) was “did not block” and the “reversal of PAO-stimulated catenin tyrosine phosphorylation” value [2] was “is reversed; also recorded: reversed catenin tyrosine phosphorylation”.
In the case of `O=C(O)CN(CC(=O)O)c1ccccc1OCCOc1ccccc1N(CC(=O)O)CC(=O)O` [BAPTA, bis- (O-aminophenoxy)-ethane-N,N,N′,N′-tetraacetic acid], the “change in TER” value ([1]; MDCK strain I cells, preformed pervanadate 0.01-0.1 mM (FIG. 1b), PAO 1-30 μM (FIG. 2a), BAPTA 2.5-3 mM) is reported as “decrease in TER”.
For `Nc1ncnc2c1ncn2[C@@H]1O[C@@H]2COP(=O)(O)O[C@H]2[C@H]1O` [cyclic AMP], the “effect of cyclic AMP on TER” value [3] is given as “increases TER”.
For `CO[C@H]1[C@@H](OC)C[C@H](C)[C@@H](OC)C2=CC(=O)C=C(NC(=O)/C(C)=C/C=C\[C@H](OC)[C@@H](OC(N)=O)/C(C)=C/[C@@H]1C)C2=O` [herbimycin A], the “effect of herbimycin A on PAO-induced increase in protein tyrosine phosphorylation” value [4] was “attenuated the ability of PAO to increase protein tyrosine phosphorylation”, the “effect of herbimycin A alone on resistance” value [1] was “did not affect resistance” and the “effect of herbimycin A pretreatment on PAO-induced decrease in transcellular electrical resistance” value [1] was “attenuated the decrease in transcellular electrical resistance”.
With `[O]=[V]([O-])([O-])[O-]` [vanadate] the “change in TER after addition of H2O2 to vanadate pretreated cells” value [1] was “caused a rapid decrease in TER”, the “change in TER over a longer time period, vanadate alone” value [1] was “caused a decrease in TER” and the “change in TER, vanadate alone” value [1] was “did not cause a decrease in TER”. The “tyrosine phosphorylation of cadherin and β-catenin” value [5] was “induced the tyrosine phosphorylation of E- or P-cadherin and β-catenin”.
In the case of `OCCS` [β-mercapto-ethanol, β-mercaptoethanol], the “block of PAO-induced decrease in TER by reducing agent” value [1] is reported as “not”.
In the case of pervanadate, the “phosphotyrosine label of blood vessels” value [6] is reported as “induces detectable levels of phosphotyrosine in both large and small vessels; also recorded: induces increased phosphotyrosine in both small and large blood vessels”, the “tyrosine phosphorylation of proteins in whole cell lysates” value [4] is reported as “caused an increase in the tyrosine phosphorylation of many proteins” and the “paracellular flux of sucrose” value [7] is reported as “increase the paracellular flux of sucrose”. For the same compound, the “change in TER” value [8] was “caused a dose-dependent and rapid decrease in TER”, the “tyrosine phosphorylation of proteins in whole cell lysates” value [9] was “caused an increase in the tyrosine phosphorylation of many proteins” and the “change in TER” value [1] was “elicited a decrease in TER”. The “reversibility of the induced decrease in TER by reducing agent if added early enough” value [1] was “partially reversed”, the anti-phosphotyrosine staining pattern [10] was “initially caused an increase in staining at the adherens junction at the intercellular borders” and the anti-phosphotyrosine staining pattern [11] was “initially caused an increase in staining at the adherens junction at the intercellular borders”. For the same compound, the “tyrosine phosphorylation of ZO-1” value [12] was “also stimulated tyrosine phosphorylation of ZO-1; also recorded: clearly resulted in the tyrosine phosphorylation”, the “tyrosine phosphorylation of ZO-2” value [12] was “clearly resulted in the tyrosine phosphorylation” and the “tyrosine phosphorylation of proteins in anti-E-cadherin immunoprecipitates” value [2] was “stimulates the tyrosine phosphorylation of several catenins as well as E-cadherin; also recorded: caused an increase in the tyrosine phosphorylation of several proteins”. The “tyrosine phosphorylation of α-catenin in α-catenin immunoprecipitates” value [2] was “could not be detected”, the “β-catenin content of phosphotyrosine immunoprecipitates” value [2] was “is increased; also recorded: rapidly increased” and the “effect on the tight junction, by immunostaining of ZO-1” value [13] was “had no effect on the tight junction”. The “tyrosine phosphorylation of proteins at the adherens junction” value [13] was “elicited tyrosine phosphorylation of proteins at the adherens junction”.
